Reference: US20040025201A1, “True breeding transgenics from plants heterozygous for transgene insertions” (New Zealand Institute for Crop & Food Research Lim, priority 1995, published 2004)

How the values were obtained:
Assay type in all cases: in vivo
[1] = test system: Brassica napus (30b) mutant; assay: Experiment 1: segregation of chlorsulfuron resistance in selfed progeny of sprayed heterozygous plants
Source text: A homozygous line of a Brassica napus (30b) mutant, with a single gene conferring sulfonylurea resistance (Conner et al., Proceedings of the 47th New Zealand Plant Protection Conference, 173-177 (1994)), was used in this study. Brassica napus are self-fertile, with about 80% of the seed normally arising from self-pollination, although a greater degree of cross-pollination may occur when insect pollinators are abundant (Downey et al., Rapeseed and Mustard, Chapter 35:495-509, In Hybridization of Crop Plants, supra). B. napus is commonly referred to as canola, rape and oilseed rape.
The 30b mutant line was hybridized to a herbicide-sensitive genotype to generate a seed population heterozygous for sulfonylurea resistance. These heterozygous seeds were sown, repotted into individual pots in a greenhouse, and individuals were randomly divided into 3 populations:
(ii) plants sprayed once with chlorsulfuron (a sulfonylurea herbicide) at a rate of 3 mg/liter until runoff, just as the plants were beginning to bolt (development of flowering stems) (19 plants).
(iii) plants sprayed with chlorsulfuron at a rate of 3 mg./liter until runoff, just as the plants were beginning to bolt, and then every 2 weeks until initiation of plant senescence (18 plants).
(§1) The heterozygous plants were allowed to self pollinate and resulting seeds harvested at maturity. This next generation was screened for chlorsulfuron resistance as previously described (Conner et al. (1994). Briefly, this involved surface sterilizing the seeds (10-12 minutes in 1% sodium hypochlorite, plus a drop of Tween 20), followed by 2-3 rinses in sterile water, then sowing the seeds in vitro onto the surface of a medium consisting of half strength MS salts at pH 5.8 (Murashige and Skoog Physiologia Plantarum 15:473-497 (1962)) supplemented with 10 ug/liter chlorsulfuron and 6.5 g/liter agar. Seeds were then germinated at 24-26° C. under cool white fluorescent lights (80-100) umol/m2/sec; 16 h light: 8 h darkness daily).
(§2) Seeds generally germinated after 3-4 days and were scored for chlorsulfuron resistance 5-7 days after sowing. Resistant seedlings had long healthy roots (4-6 cm) that penetrated into the gelled medium, with healthy green cotyledons.

[2] = test system: Brassica napus mutant (19c); assay: Experiment 2: segregation of chlorsulfuron resistance in selfed progeny of sprayed heterozygous plants
Description: as §1, §2
A further chlorsulfuron-resistant Brassica napus mutant (19c), of independent origin to mutant 30b (Conner et al., Proceedings of the 47th New Zealand Plant Protection Conference, 173-177 (1994)) was subjected to identical experiments described above for mutant 30b.

[3] = test system: Transgenic forage brassica plants (Brassica napus cv. Giant), line G/HR10; assay: Experiment 3: segregation of GUS activity in selfed progeny of sprayed transgenic forage brassica; settings: sprayed once prior to bolting, 20 g/ha
Source text: Plant line used: G/HR10 (Christey and Sinclair, Plant Science: 87 161-169 (1992)). This line contains a single insertion of the T-DNA from pKIWI110 and expresses transgenes conferring kanamycin resistance, β-glucuronidase (GUS) activity, and chlorsulfuron resistance.
Plants of the original transgenic line were cloned in vitro, then transferred to a containment greenhouse. […] The plants were allowed to self-pollinate and the seeds were harvested five months after spraying. The progeny germinated and histochemically screened for GUS activity.

[4] = test system: Transgenic potato plants (Solanum tuberosum cv. Iwa), line SCI1; assay: Experiment 4: segregation of GUS activity in selfed progeny of sprayed transgenic potato; settings: sprayed once three weeks after planting, 20 g/ha
Source text: The Solanum tuberosum, subspecies tuberosum, plant line used: SCI1 (Conner et al., Journal of Cellular Biochemistry 13D: 333 (1989)). This line of potato is transformed with the T-DNA from pKIWI100 and expresses transgenes conferring kanamycin resistance, β-glucuronidase (GUS) activity, and chlorsulfuron resistance. The cultivated varieties of potato grown in the United States and Europe are predominantly tetraploid (i.e., four complete sets of chromosomes) (Plaisted, R. L., Potato, Chapter 34:483-494, In Hybridization of Crop Plants, supra; Allard, pg. 6, supra.
Plants of the original transgenic line were vegetatively propagated via tubers which were planted in a containment greenhouse. Soon after sprouting (three weeks after planting) the plants were sprayed once with either water of chlorsulfuron at the equivalent rate of 20 g/ha Plants were self pollinated at flowering and berries harvested 15 weeks after spraying. Seeds were extracted and germinated, and the progeny histochemically screened for GUS activity.

[5] = test system: Brassica napus plants heterozygous for the chlorsulfuron-resistant mutation (wt×30b); assay: Experiment 5 part (a): self-pollinated seed of heterozygous plants sprayed at varying times
Description: as §1, §2
(§3) To further explore the underlying reasons accounting for the induced skewed segregation, additional crosses using the 30b mutant were performed. At specified times the plants were sprayed with chlorsulfuron and the progeny evaluated as described in Experiment 1 above.
Part (a). Plants heterozygous for the chlorsulfuron-resistant mutation (wt×30b) were either not sprayed, or sprayed with chlorsulfuron at varying times during development. The self-pollinated seed was harvested, and the germinated seedlings were screened for chlorsulfuron resistance.

[6] = test system: Brassica napus plants heterozygous for the chlorsulfuron-resistant mutation (wt×30b); assay: Experiment 5 part (b): back-crossed progeny ((wt×30b)×wt) of sprayed ovule parent
Description: as §1, §2, §3
Part (b). Plants heterozygous for the chlorsulfuron-resistant mutation (wt×30b) were either not sprayed, or sprayed with chlorsulfuron at varying times during development. The back crossed-progeny ((wt×30b)×wt), resulting from pollen from non-sprayed wildtype plants were screened for chlorsulfuron resistance as described in Experiment 1.

[7] = test system: Brassica napus plants heterozygous for the chlorsulfuron-resistant mutation (wt×30b); assay: Experiment 5 part (c): back-crossed progeny (wt×(wt×30b)) of sprayed pollen parent; settings: pollen parent sprayed just prior to bolting
Description: as §1, §2, §3
Part (c). Plants heterozygous for the chlorsulfuron-resistant mutation (wt×30b) were either not sprayed, or sprayed with chlorsulfuron just prior to bolting. The pollen from these plants was back-crossed to non-sprayed wildtype plants, and the resulting progeny (wt×(wt×30b)) were screened for chlorsulfuron resistance as described in Experiment 1.

[8] = test system: Brassica napus plants heterozygous for the chlorsulfuron-resistant mutation (wt×30b); assay: Experiment 5 part (d): back-crossed progeny ((wt×30b)×30b) of sprayed female parent; settings: heterozygous female parent sprayed just prior to bolting
Description: as §1, §2, §3
Part (d). Plants heterozygous for the chlorsulfuron-resistant mutation (wt×30b) were either not sprayed, or sprayed with chlorsulfuron just prior to bolting. […]

[9] = total of 18 plants repeatedly sprayed
[10] = total of 19 plants sprayed once
[11] = sprayed 2 weeks after pods full size
[12] = sprayed at pods reaching full size
[13] = sprayed at seedlings (2-3 leaves)

COc1nc(C)nc(NC(=O)NS(=O)(=O)c2ccccc2Cl)n1 [chlorsulfuron]
Resistance of progeny of sprayed heterozygous plants (in words) ([1]; both spray regimes): virtually all the progeny obtained were resistant to chlorsulfuron
Number of herbicide-resistant progeny, Total [1, 9]: 728
Number of herbicide-sensitive progeny, Total [1, 9]: 2
Number of herbicide-resistant progeny, Total [1, 10]: 1588
Number of herbicide-sensitive progeny, Total [1, 10]: 17
Number of herbicide-resistant seedlings ([2]; repeated fortnightly sprays from bolting): 96
Number of herbicide-resistant seedlings ([2]; sprayed just prior to bolting): 398
Number of herbicide-sensitive seedlings ([2]; sprayed just prior to bolting): 31
GUS-negative progeny ([3]; Population A): 13
GUS-positive progeny ([3]; Population A): 78
GUS-negative progeny ([3]; Population B): 16
GUS-positive progeny ([3]; Population B): 96
GUS-negative progeny [4]: 12
GUS-positive progeny [4]: 136
Number of herbicide-resistant seedlings [5, 11]: 184
Number of herbicide-sensitive seedlings [5, 11]: 26
Number of seeds per pod [5, 11]: 6.2
Number of herbicide-resistant seedlings [5, 12]: 160
Number of herbicide-sensitive seedlings [5, 12]: 16
Number of seeds per pod [5, 12]: 5.8
Number of herbicide-resistant seedlings [5, 13]: 440
Number of herbicide-sensitive seedlings [5, 13]: 11
Number of seeds per pod [5, 13]: 5.6
Number of herbicide-resistant seedlings ([5]; sprayed just prior to bolting): 565
Number of herbicide-sensitive seedlings ([5]; sprayed just prior to bolting): 5
Number of seeds per pod ([5]; sprayed just prior to bolting): 5.4
Number of herbicide-resistant seedlings [6, 11]: 104
Number of herbicide-sensitive seedlings [6, 11]: 37
Number of seeds per pod [6, 11]: 4.3
Number of herbicide-resistant seedlings [6, 12]: 127
Number of herbicide-sensitive seedlings [6, 12]: 28
Number of seeds per pod [6, 12]: 4.0
Number of herbicide-resistant seedlings ([6]; sprayed just prior to bolting): 134
Number of herbicide-sensitive seedlings ([6]; sprayed just prior to bolting): 5
Number of seeds per pod ([6]; sprayed just prior to bolting): 3.4
Number of herbicide-resistant seedlings [7]: 381
Number of herbicide-sensitive seedlings [7]: 112
Number of seeds per pod [7]: 6.3
Number herbicide-sensitive seedlings [8]: 0
Number of herbicide-resistant seedlings [8]: 111
